Assay results published in patent US11186575B2, “Treatment of helicobacter pylori infections” (Albert Einstein College of Medicine, Inc., priority 2012, dated 2021).
Like-named read-outs stand apart in the source and are kept apart here.

Key:
HpMTAN = biological target: T1, HpMTAN (Helicobacter pylori, UniProt Q9ZMY2); experiment: Kinetics of HpMTAN with substrates, direct assay (absorbance at 274 nm); type: biochemical; conditions: substrate of purified HpMTAN
T1 construct: His6 (N); made in house; host or cells: E. coli BL21 (DE3)
T1 sequence (Q9ZMY2 1-230): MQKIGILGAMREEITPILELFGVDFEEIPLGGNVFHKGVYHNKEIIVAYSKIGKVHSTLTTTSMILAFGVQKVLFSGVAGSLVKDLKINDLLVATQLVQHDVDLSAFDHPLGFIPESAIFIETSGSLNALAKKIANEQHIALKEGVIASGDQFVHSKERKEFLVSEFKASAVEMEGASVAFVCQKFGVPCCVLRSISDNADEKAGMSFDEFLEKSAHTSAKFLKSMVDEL
Procedure: (§1) Kinetics of HpMTAN were determined using a direct assay involving absorbance decrease at 274 nm continuously as a consequence of formation of free adenine from 5′-methylthioadenosine. The Ki and Ki* values of BuT-DADMe-ImmA (30) were determined using coupled assays, in which xanthine oxidase was used as the coupling enzyme and absorbance increase was followed at 292 nm as the product adenine is converted to 2,8-dihydroxyadenine. Both assays have been previously described
BuT-DADMe-ImmA (30) was previously characterized as a transition state analogue inhibitor of EcMTAN (FIG. 1C)^8. Here, inhibition assays were performed using BuT-DADMe-ImmA against recombinant HpMTAN with 5′-methylthioadenosine as substrate. Purified HpMTAN uses both 5′-methylthioadenosine and 6-amino-6-deoxyfutalosine as facile substrates. […] The low Kd value supports the proposal that BuT-DADMe-ImmA is a transition state analogue inhibitor for HpMTAN. […] The nitrogen of the hydroxypyrrolidine moiety has a pKa value of 9, and thus mimics the positive charge of a ribocation at the transition state. The methylene bridge extends the distance between the sugar and the purine base leaving group, as this distance is near 3 Å at the transition state. […]

H. pylori MTAN [1] = biological target: T2, H. pylori MTAN (Helicobacter pylori, UniProt Q9ZMY2); experiment: Ki determination: inhibition of recombinant HpMTAN, xanthine oxidase coupled assay, 5′-methylthioadenosine as substrate; type: biochemical
T2 construct: His6 (N); made in house; host or cells: E. coli BL21 (DE3)
T2 sequence (Q9ZMY2 1-230): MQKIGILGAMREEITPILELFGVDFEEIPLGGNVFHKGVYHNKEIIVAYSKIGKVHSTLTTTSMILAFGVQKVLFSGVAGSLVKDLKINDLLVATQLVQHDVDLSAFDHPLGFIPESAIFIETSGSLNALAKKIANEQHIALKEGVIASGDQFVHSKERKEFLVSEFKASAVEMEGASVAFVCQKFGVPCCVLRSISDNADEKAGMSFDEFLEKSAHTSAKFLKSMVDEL
Procedure: The purification procedure of HpMTAN was described previously^10. Briefly, BL21 (DE3) cells harboring a plasmid encoding HpMTAN with an N-terminal His6-tag were grown to an optical density of 0.7 measured at 595 nm and IPTG was introduced to a final concentration of 0.5 mM. After another 15 h at 22° C., cells were collected by centrifugation. The pellet was suspended and later disrupted by pressure cell and sonication. The soluble portion was applied to a Ni-NTA column and HpMTAN was eluted with an imidazole concentration gradient of 200 to 500 mM. The protein was desalted using a Superdex G15 gel-filtration column then equilibrated and concentrated in 10 mM Hepes, 30 mM KCl, pH 7.6. The purity was confirmed by SDS-PAGE.
as §1
(§2) BuT-DADMe-ImmA (30) was previously characterized as a transition state analogue inhibitor of EcMTAN (FIG. 1C)^8. Here, inhibition assays were performed using BuT-DADMe-ImmA against recombinant HpMTAN with 5′-methylthioadenosine as substrate. Purified HpMTAN uses both 5′-methylthioadenosine and 6-amino-6-deoxyfutalosine as facile substrates. […] The low Kd value supports the proposal that BuT-DADMe-ImmA is a transition state analogue inhibitor for HpMTAN. […] The nitrogen of the hydroxypyrrolidine moiety has a pKa value of 9, and thus mimics the positive charge of a ribocation at the transition state. The methylene bridge extends the distance between the sugar and the purine base leaving group, as this distance is near 3 Å at the transition state. The 9-deazaadenine alters conjugation in the purine ring, causing an elevated pKa and protonation of N7, resembling the N7-protonated adenine leaving group at the transition state.

H. pylori [2] = experiment: H. pylori growth on tryptic soy agar with 5% horse blood (MIC); type: cell-based, Helicobacter pylori; conditions: for MIC90: Helicobacter pylori
Procedure: (§3) H. pylori were grown for 72 hours under microaerophilic condition (5% O2, 10% CO2 and 85% N2) at 37° C. on tryptic soy agar with 5% horse blood. To determine the MIC values, the test substance was added to the gel solution right before pouring. To compare the zones of inhibition, specific antibiotics were added to the center of disc after spreading H. pylori, and then H. pylori was allowed to grow for 72 hours under microaerophilic condition at 37° C.
The effects of BuT-DADMe-ImmA (30) were tested on H. pylori growing on 5% horse blood agar. At 6 ng/ml, slight growth was detected and at 8 ng/ml, no growth was detected, therefore the MIC90 value for inhibition of H. pylori growth is <8 ng/ml (FIG. 3A).

H. pylori [3] = experiment: Zone of inhibition (disc) on H. pylori; type: cell-based, Helicobacter pylori; conditions: for zones of inhibition, comparison of antibiotics: equivalent amounts (10 ng or 20 ng per disc)
Procedure: FIG. 3A-3B: The effects of BuT-DADMe-ImmA (30) on H. pylori growth. A. The effects of increasing the concentration of BuT-DADMe-ImmA (ng/ml) on growth on blood agar. B. The inhibitory effects of BuT-DADMe-ImmA are compared with amoxicillin, metronidazole and tetracyclin in zone of inhibition studies. Drug concentrations were: 0 (top disc), 10 ng (middle disc) or 20 ng (bottom disc). Each specified antibiotic was applied to the disc in the same manner.
as §3
Commonly used antibiotics in H. pylori infections include amoxicillin, metronidazole and tetracycline. The anti-H. pylori effects of BuT-DADMe-ImmA (30) were compared to those antibiotics in common use. […] Thus, BuT-DADMe-ImmA is more efficient at inhibition of H. pylori growth than commonly used antibiotics.

K. pneumoniae = experiment: Growth of K. pneumoniae on MacConkey agar; type: cell-based; conditions: culture concentrations to 5 μg/ml, 24 hours
Procedure: (§4) At the desired concentration of the test substance BuT-DADMe-ImmA (30), K pneumoniae, S. flexneri and S. enterica were grown on MacConkey agar at 37° C. for 24 hours, and S. aureus and P. aeruginosa were grown on LB agar at 37° C. for 24 hours.
(§5) In most bacteria, MTANs are expressed and catalyze the hydrolysis of the N-ribosidic bonds of 5′-methylthioadenosine and S-adenosylhomocysteine. The two reactions are involved in bacterial quorum sensing, sulfur recycling via S-adenosylmethionine and polyamine synthesis^16; however, most bacterial MTANs are not essential for bacterial proliferation as judged by planktonic growth conditions. […] The effects BuT-DADMe-ImmA were also tested on the growth for additional clinically common pathogens, S. aureus, K pneumoniae, S. flexneri, S. enterica and P. aeruginosa. […] Because of the inhibitor specificity for this rare menaquinone pathway, treatment of H. pylori infections with BuT-DADMe-ImmA would be unlikely to generate antibiotic resistance in off-target bacterial species.

S. flexneri = experiment: Growth of S. flexneri on MacConkey agar; type: cell-based; conditions: culture concentrations to 5 μg/ml, 24 hours
Procedure: as §4, §5

S. enterica = experiment: Growth of S. enterica on MacConkey agar; type: cell-based; conditions: culture concentrations to 5 μg/ml, 24 hours
Procedure: as §4, §5

S. aureus = experiment: Growth of S. aureus on LB agar; type: cell-based; conditions: culture concentrations to 5 μg/ml, 24 hours
Procedure: as §4, §5

P. aeruginosa = experiment: Growth of P. aeruginosa on LB agar; type: cell-based; conditions: culture concentrations to 5 μg/ml, 24 hours
Procedure: as §4, §5

H. pylori MTAN [4] = biological target: T2, H. pylori MTAN; conditions: Table 3, cited from earlier work
E. coli = conditions: reference 6; cited from earlier work
V. cholerae = conditions: reference 6; cited from earlier work
MTAN [5] = biological target: T3, MTAN (Escherichia coli, UniProt P0AF12); conditions: reference 6; cited from earlier work
T3 construct: host or cells: E. coli cells
T3 sequence (P0AF12 whole entry): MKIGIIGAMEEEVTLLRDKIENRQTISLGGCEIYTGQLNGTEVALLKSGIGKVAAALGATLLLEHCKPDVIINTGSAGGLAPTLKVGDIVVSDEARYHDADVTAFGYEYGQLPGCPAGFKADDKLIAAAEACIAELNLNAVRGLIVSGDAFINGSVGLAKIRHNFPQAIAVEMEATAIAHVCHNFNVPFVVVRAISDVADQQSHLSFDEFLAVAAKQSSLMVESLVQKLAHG

MTAN [6] = biological target: T4, MTAN (Vibrio cholerae serotype O1, UniProt Q9KPI8); conditions: reference 6; cited from earlier work
T4 construct: host or cells: V. cholerae cells
T4 sequence (Q9KPI8 whole entry): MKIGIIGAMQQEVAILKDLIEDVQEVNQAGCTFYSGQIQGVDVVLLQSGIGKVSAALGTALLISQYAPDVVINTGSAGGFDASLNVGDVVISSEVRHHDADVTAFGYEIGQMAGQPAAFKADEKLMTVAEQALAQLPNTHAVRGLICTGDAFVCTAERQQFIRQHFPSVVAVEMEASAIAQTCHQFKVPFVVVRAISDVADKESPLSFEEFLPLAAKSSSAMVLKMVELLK

[7] = stated without a test; cited from earlier work
[8] = substrate: CC(O)[C@H]1O[C@@H](n2cnc3c(N)ncnc32)[C@H](S)[C@@H]1O; experiment: Kinetics of HpMTAN with substrates, direct assay (absorbance at 274 nm); type: biochemical, Helicobacter pylori; conditions: other: substrate of purified HpMTAN
Procedure: as §1, §2

Nc1ncnc2c1ncn2[C@@H]1O[C@H](CCC(=O)c2cccc(C(=O)O)c2)[C@@H](O)[C@H]1O [6-amino-6-deoxyfutalosine]
Km (HpMTAN): 0.8 ± 0.3 µM
kcat (HpMTAN; in 1/s): 4.3±0.9

CCCCSC[C@H]1CN(Cc2c[nH]c3c(N)ncnc23)C[C@@H]1O [Compound 30, (3R,4S)-4-(1-butylthiomethyl)-1-[(9-deaza-adenin-9-yl)-methyl]-3-hydroxypyrrolidine]
Ki (H. pylori MTAN [1]; 5′-methylthioadenosine as substrate, read-out: initial inhibition constant (Ki)): 800 pM
Km/Kd ratio (H. pylori MTAN [1]; Km 0.8 μM for 6-amino-6-deoxyfutalosine as substrate): 22,200
Kd (H. pylori MTAN [1]; following slow-onset of inhibition, read-out: equilibrium dissociation constant (Ki*=Kd)): 36 pM
MIC90 (H. pylori [2]; 5% horse blood agar, read-out: MIC90 value for inhibition of H. pylori growth): < 8 ng/mL
MIC90 (H. pylori [2]; Table 3, agar plate, 72 hours, microaerophilic, read-out: Inhibition of H. pylori growth MIC90): 6 to 8 ng/mL
MIC90 (H. pylori [2]; corresponds to MIC90 of 8 ng/ml, read-out: MIC90 as chemical concentration): 0.023 µM
H. pylori growth (H. pylori [2]; at 6 ng/ml, 5% horse blood agar): slight growth
H. pylori growth (H. pylori [2]; at 8 ng/ml, 5% horse blood agar): no growth
zones of clearance (H. pylori [3]; 10 ng on disc): Small zones of clearance
zones of clearance (H. pylori [3]; 20 ng on disc): large zones
zones of inhibition, comparison of antibiotics (H. pylori [3]): greater than those for any of the other antibiotics
growth inhibition of K. pneumoniae (K. pneumoniae): no growth inhibition
growth inhibition of S. flexneri (S. flexneri): no growth inhibition
growth inhibition of S. enterica (S. enterica): no growth inhibition
growth inhibition of S. aureus (S. aureus): no growth inhibition
growth inhibition of P. aeruginosa (P. aeruginosa): no growth inhibition
Ki (H. pylori MTAN [4]; value from Reference 10, read-out: Inhibition of H. pylori MTAN Ki*): 36 ± 2 pM
Ki (H. pylori MTAN [4]; value marked (Reference 10), read-out: Inhibition of H. pylori MTAN Ki): 790 ± 40 pM
effect on growth of E. coli (E. coli): did not affect the growth
effect on growth of V. cholerae (V. cholerae): did not affect the growth
MTAN activity in E. coli (MTAN [5]): totally abolished
MTAN activity in V. cholerae (MTAN [6]): totally abolished
pKa value of the nitrogen of the hydroxypyrrolidine moiety [7]: 9

Cc1ncc([N+](=O)[O-])n1CCO [metronidazole, reference compound]
zones of inhibition, comparison of antibiotics (H. pylori [3]): no growth inhibition

B1: HpMTAN (Helicobacter pylori J99) (protein)
chain: MQKIGILGAMREEITPILELFGVDFEEIPLGGNVFHKGVYHNKEIIVAYSKIGKVHSTLTTTSMILAFGVQKVLFSGVAGSLVKDLKINDLLVATQLVQHDVDLSAFDHPLGFIPESAIFIETSGSLNALAKKIANEQHIALKEGVIASGDQFVHSKERKEFLVSEFKASAVEMEGASVAFVCQKFGVPCCVLRSISDNADEKAGMSFDEFLEKSAHTSAKFLKSMVDEL
notes: His6 (N); made in house; host or cells: E. coli BL21 (DE3)
Km [8]: 0.6 ± 0.3 µM
kcat [8]: 12.1 s⁻¹
kcat/Km [8]: 2e+07 M⁻¹ s⁻¹
